The values below come from patent US20110105540A1, “2-AMINO-9-[4-(4-METHOXY-PHENOXY)-PIPERIDIN-1-YL]-4-PHENYL-INDENO[1,2-D]PYRIMIDIN-5-ONE AND ITS USE AS A HIGHLY SELECTIVE ADENOSINE A2a RECEPTOR ANTAGONIST” (priority 2009, published 2011).

Molecules are shown by their SMILES.

Assay [1] addresses T1, human adenosine A2A receptor (Homo sapiens, UniProt P29274).
T1 construct: expressed in transfected cells; host or cells: CHO-K1
Kind of assay: Adenosine A2A Receptor Functional Assay (A2AGAL2). Format: cell-based. The method, then:
To initiate the functional assay, cryopreserved CHO-K1 cells overexpressing the human adenosine A2A receptor and containing a cAMP inducible beta-galactosidase reporter gene were thawed, centrifuged, DMSO containing media removed, and then seeded with fresh culture media into clear 384-well tissue culture treated plates (BD #353961) at a concentration of 10K cells/well. Prior to assay, these plates were cultured for two days at 37° C., 5% CO2, 90% Rh. On the day of the functional assay, culture media was removed and replaced with 45 μL assay medium (Hams/F-12 Modified (Mediatech #10-080CV) supplemented w/0.1% BSA). Test compounds were diluted and 11 point curves created at a 1000× concentration in 100% DMSO. Immediately after addition of assay media to the cell plates, 50 nL of the appropriate test compound antagonist or agonist control curves were added to cell plates using a Cartesian Hummingbird. Compound curves were allowed to incubate at room temperature on cell plates for approximately 15 minutes before addition of a 15 nM NECA (Sigma E2387) agonist challenge (5 μL volume). […]
The colorimetric reaction was stopped with the addition of 60 μL/well 1M sodium carbonate. Plates were counted at 405 nm on a SpectraMax Microplate Reader (Molecular Devices). Data was analyzed in Microsoft Excel and IC/EC50 curves were fit using a standardized macro.

The target in assay [2] is T2, human adenosine A1 receptor (Homo sapiens, UniProt P30542).
T2 construct: expressed in transfected cells; host or cells: CHO-K1
T2 sequence (P30542 1-326): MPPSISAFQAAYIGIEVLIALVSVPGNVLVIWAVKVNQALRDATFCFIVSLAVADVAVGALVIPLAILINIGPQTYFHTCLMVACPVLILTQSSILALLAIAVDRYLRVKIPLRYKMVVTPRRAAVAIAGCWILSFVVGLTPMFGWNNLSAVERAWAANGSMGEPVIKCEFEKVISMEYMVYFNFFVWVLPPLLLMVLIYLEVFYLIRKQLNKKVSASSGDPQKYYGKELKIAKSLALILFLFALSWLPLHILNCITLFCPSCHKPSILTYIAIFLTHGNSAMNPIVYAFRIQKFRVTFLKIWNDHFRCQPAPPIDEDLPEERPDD
Kind of assay: Adenosine A1 Receptor Functional Assay (A1GAL2). Format: cell-based. Particulars: CHO-K1 cells overexpressing human A1 receptor, cAMP inducible beta-galactosidase reporter, 4 nM r-PIA/1 uM Forskolin agonist challenge. Here is the method: To initiate the functional assay, cryopreserved CHO-K1 cells overexpressing the human adenosine A1 receptor and containing a cAMP inducible beta-galactosidase reporter gene were thawed, centrifuged, DMSO containing media removed, and then seeded with fresh culture media into clear 384-well tissue culture treated plates (BD #353961) at a concentration of 10K cells/well. Prior to assay, these plates were cultured for two days at 37° C., 5% CO2, 90% Rh. On the day of the functional assay, culture media was removed and replaced with 45 μL assay medium (Hams/F-12 Modified (Mediatech #10-080CV) supplemented w/0.1% BSA). Test compounds were diluted and 11 point curves created at a 1000× concentration in 100% DMSO. Immediately after addition of assay media to the cell plates, […] of the appropriate test compound antagonist or agonist control curves were added to cell plates using a Cartesian Hummingbird. Compound curves were allowed to incubate at room temperature on cell plates for approximately 15 minutes before addition of a 4 nM r-PIA (Sigma P4532)/1 uM Forskolin (Sigma F3917) agonist challenge (5 μL volume). […] Plates were counted at 405 nm on a SpectraMax Microplate Reader (Molecular Devices). Data was analyzed in Microsoft Excel and IC/EC50 curves were fit using a standardized macro.

T1 sequence (P29274 whole entry): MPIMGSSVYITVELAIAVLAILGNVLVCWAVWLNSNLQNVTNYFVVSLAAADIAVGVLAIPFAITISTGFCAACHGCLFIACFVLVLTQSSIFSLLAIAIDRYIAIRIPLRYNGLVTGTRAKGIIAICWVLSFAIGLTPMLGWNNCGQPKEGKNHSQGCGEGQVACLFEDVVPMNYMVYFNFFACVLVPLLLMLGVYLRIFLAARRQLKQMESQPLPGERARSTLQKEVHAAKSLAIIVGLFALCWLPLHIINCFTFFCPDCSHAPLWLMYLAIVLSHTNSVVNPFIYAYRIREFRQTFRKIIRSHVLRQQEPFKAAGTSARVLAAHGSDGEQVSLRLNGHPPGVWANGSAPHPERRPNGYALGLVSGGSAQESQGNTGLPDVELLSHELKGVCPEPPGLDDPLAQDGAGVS

Consider `COc1ccc(OC2CCN(c3cccc4c3-c3nc(N)nc(-c5ccccc5)c3C4=O)CC2)cc1` [Example A, 2-Amino-9-[4-(4-methoxy-phenoxy)-piperidin-1-yl]-4-phenyl-indeno[1,2-d]pyrimidin-5-one], for which the IC50 – broadly, the midpoint of a concentration-inhibition curve – in assay [1] (CHO-K1 cells overexpressing human A2A receptor, cAMP inducible beta-galactosidase reporter, 15 nM NECA agonist challenge) was found to be 0.0023 µM; in assay [2], 7.3 µM. In addition, the A1/A2A in assay [1] (ratio of A1Gal2 to A2AGal2 values (selectivity for A2A over A1)) is 3173.91.
